Laboratory results published in patent US20130012546A1 (priority 2009, published 2013).

test: logP(HCOOH) by HPLC; assay type: physicochemical; settings: HPLC on reversed phase columns, pH 2.7, 0.1% formic acid in water / acetonitrile, linear gradient 10% to 95% acetonitrile; EEC directive 79/831 Annex V.A8

| SMILES | log p |
| --- | --- |
| CON=C(C(=O)Nc1nc(CON=C(c2ccccc2)n2nnnc2C)cs1)c1ccc(Br)cc1 [Example 29] | 4.41 |
| CON=C(C(=O)Nc1nc(CON=C(c2ccccc2)n2nnnc2C)cs1)c1cccc(Cl)c1Cl [Example 30] | 4.32 |
| CC(=NOCC(=O)Nc1cccc(CON=C(c2ccccc2)c2nnnn2C)n1)C(C)(C)C [Example 31] | 4.23 |
| C#CCOCC(=O)Nc1nc(CO/N=C(/c2ccccc2)n2nnnc2C)cs1 [Example 49] | 2.69 |
| Cn1nnnc1/C(=N\OCc1cccc(NC(=O)OC2CC3CCC2(C)C3(C)C)n1)c1ccccc1 (centres unmarked) [Example 55] | 5.32 |
| Cn1nnnc1/C(=N\OCc1cccc(NC(=O)OCC2CCCCC2)n1)c1ccccc1 [Example 57] | 4.72 |
| Cn1nnnc1/C(=N\OCc1cccc(NC(=O)OCC2CC2)n1)c1ccccc1 [Example 58] | 3.46 |
| Cn1nnnc1/C(=N\OCc1cccc(NC(=O)OCCC2CCCCC2)n1)c1ccccc1 [Example 59] | 5.11 |
| Cc1nnnn1C(=NOCc1csc(NC(=O)OCCCC2CCCC2)n1)c1ccccc1 [Example 65] | 4.77 |
| Cc1nnnn1C(=NOCc1csc(NC(=O)OCC2CCCC2)n1)c1ccccc1 [Example 66] | 3.99 |
| Cc1nnnn1C(=NOCc1csc(NC(=O)OCCCC2CCCCC2)n1)c1ccccc1 [Example 67] | 5.11 |
| Cc1nnnn1C(=NOCc1csc(NC(=O)OCCCC2CC2)n1)c1ccccc1 [Example 68] | 3.9 |
| Cn1nnnc1C(=NOCc1cccc(NC(=O)OCCCC2CCCC2)n1)c1ccccc1 [Example 69] | 5.06 |
| Cn1nnnc1C(=NOCc1cccc(NC(=O)OCC2CCCC2)n1)c1ccccc1 [Example 70] | 4.25 |
| Cn1nnnc1C(=NOCc1cccc(NC(=O)OCCCC2CCCCC2)n1)c1ccccc1 [Example 71] | 5.45 |
| Cn1nnnc1C(=NOCc1cccc(NC(=O)OCCCC2CC2)n1)c1ccccc1 [Example 72] | 4.15 |
| Cn1nnnc1C(=NOCc1csc(NC(=O)OCCCC2CCCC2)n1)c1ccccc1 [Example 73] | 4.7 |
| Cn1nnnc1C(=NOCc1csc(NC(=O)OCC2CCCC2)n1)c1ccccc1 [Example 74] | 3.92 |
| Cn1nnnc1C(=NOCc1csc(NC(=O)OCCCC2CCCCC2)n1)c1ccccc1 [Example 75] | 5.03 |
| Cn1nnnc1C(=NOCc1csc(NC(=O)OCCCC2CC2)n1)c1ccccc1 [Example 76] | 3.85 |
| CC(OC1CCCCCC1)C(=O)Nc1cccc(CON=C(c2ccccc2)c2nnnn2C)n1 (centres unmarked) [Example 100] | 4.8 |
| Cc1nnnn1C(=NOCc1csc(NC(=O)COC2CC(C)CCC2C(C)C)n1)c1ccccc1 (centres unmarked) [Example 106] | 5.48 |
| Cc1nnnn1C(=NOCc1cccc(NC(=O)COC2CC(C)CCC2C(C)C)n1)c1ccccc1 (centres unmarked) [Example 108] | 5.95 |
| C=C(C)C(C)=CCC(C)OCC(=O)Nc1nc(CON=C(c2ccccc2)n2nnnc2C)cs1 (centres unmarked) [compound 110] | 4.56 |
| C=CCCCOCC(=O)Nc1nc(CON=C(c2ccccc2)n2nnnc2C)cs1 [compound 111] | 3.55 |
| C=CCCCOCC(=O)Nc1cccc(CON=C(c2ccccc2)n2nnnc2C)n1 [compound 112] | 3.83 |
| C=C(C)C(C)=CCC(C)OCC(=O)Nc1cccc(CON=C(c2ccccc2)c2nnnn2C)n1 (centres unmarked) [compound 113] | 4.73 |
| C#CCOC(C(=O)Nc1nc(CON=C(c2ccccc2)n2nnnc2C)cs1)C(C)C (centres unmarked) [compound 114] | 3.46 |
| C#CCOC(CC)C(=O)Nc1nc(CON=C(c2ccccc2)n2nnnc2C)cs1 (centres unmarked) [compound 115] | 3.11 |
| C#CCOC(CC)C(=O)Nc1nc(CON=C(c2ccccc2)c2nnnn2C)cs1 (centres unmarked) [compound 116] | 3.08 |

same assay, conditions: reversed phase HPLC column; HPLC on reversed phase columns, pH 2.7, 0.1% formic acid in water / acetonitrile, linear gradient 10% to 95% acetonitrile; EEC directive 79/831 Annex V.A8; read-out: log p

| SMILES | chromatographic logP |
| --- | --- |
| CC(CC1CC1)OC(=O)Nc1cccc(CO/N=C(/c2ccccc2)c2nnnn2C)n1 (centres unmarked) [Example 60, 1-cyclopropylpropan-2-yl {6-[({[(Z)-(1-methyl-1H-tetrazol-5-yl)(phenyl)methylene]amino}oxy)methyl]pyridin-2-yl}carbamate] | 4.15 |

same assay, conditions: reversed phase HPLC columns, pH 2.7; HCOOH; read-out: logP(HCOOH)

| SMILES | chromatographic logP |
| --- | --- |
| CC(CC1CC1)OC(=O)Nc1cccc(CO/N=C(/c2ccccc2)c2nnnn2C)n1 (centres unmarked) [Example 60, 1-cyclopropylpropan-2-yl {6-[({[(Z)-(1-methyl-1H-tetrazol-5-yl)(phenyl)methylene]amino}oxy)methyl]pyridin-2-yl}carbamate] | 4.15 |
